Data on four compounds can be found in patent publication US7094428B2, “Hemostatic compositions, devices and methods” (The University of Medicine and Dentistry of New Jersey, priority 2000, dated 2006).

The subject of assay [1] is recalcified, citrated whole blood. As to the kind of experiment: SONOCLOT clotting time of recalcified, citrated whole blood. The format is biochemical. The procedure:
In such studies, anti-coagulated, citrated whole blood is recalcified to initiate the clotting process in a device which sensitively monitors the formation of the clot. Studies have been expanded from whole blood to include plasma.
(§1) Results were expressed as clotting time in seconds. […] Results are expressed as mean±standard deviation.
(§2) Silver (I) ion was provided as silver nitrate, 5% stock solution. It was diluted 100 fold to 0.05%, or in some cases to 0.01% in the clotting studies. In perfusion studies, a 10 μl aliquot of the solution was applied to the filter paper then dried.
Collagen was from Sigma Chemical Co. […] Heparinase was from Haemoscope Corp. and used at a final concentration of 1 U/mL.

Assay [2] shares this test system. As to the kind of experiment: Blood perfusion (spread of blood disk) on filter paper impregnated with the composition. The procedure: as §1, §2
The size of the blood disk on the paper was measured.

Assay [3] has as its system citrated blood anticoagulated with heparin. Briefly: SONOCLOT clotting (recalcification) time of heparinized citrated blood. The format is biochemical. The procedure:
as §1, §2
Collagen was from Sigma Chemical Co. In the clotting time studies, the final concentration of collagen was 0.1-0.2%. Heparinase was from Haemoscope Corp. and used at a final concentration of 1 U/mL.
Recalcification time was measured.

Assay [4] has as its system Platelet Rich Plasma (PRP). The following applies: 2.9 mM AgNO3, n = 8. The procedure: (§3) The hemostatic compositions of the invention were evaluated in two different systems. In one system, clotting time of recalcified, citrated whole blood in the presence of the hemostatic composition was determined using a SONOCLOT Coagulation Analyzer (Sienco Inc., Wheat Ridge Colo.). […] Results were expressed as clotting time in seconds. In a second system, the hemostatic composition was dried on a cellulose matrix (filter paper), and 7 μl aliquot of fresh blood or recalcified citrated whole blood was placed in the cellulose matrix; resulting in the spreading (perfusion) of the applied blood as an enlarging disk. Upon clotting or reduced perfusion, the further spread of the blood ceases. The surface area of the spread blood in mm^2 is used as an indication of the clotting rate of the blood. Results are expressed as mean±standard deviation. The number of samples run is indicated at the top of each data column.
(§4) This study was undertaken using platelet-rich and platelet-poor plasma to simulate an individual with normal and reduced platelet levels.

The test system of assay [5] is Platelet Poor Plasma (PPP). The conditions noted are these: 2.9 mM AgNO3, n = 8. The procedure: as §3, §4
[6] abbreviates: final concentration in blood: 1% collagen, 0.6 mM AgNO3 or the combination as labelled, n = 41.
Where [7] appears, read: Study I, filter paper impregnated with 5% AgNO3, 2% collagen or the combination as labelled, n = 13.
Setting [8] is: Study II, filter paper impregnated with 5% AgNO3, 2% collagen or the combination as labelled, n = 5.
Where [9] appears, read: thrombin 0.025 U/mL final, silver ion 2.9 mM final, n = 8.

Regarding collagen, the Clotting time in assay [1] (setting [6]) turned out to be 264 ± 37 s. The Perfusion is 35 ± 23 mm in assay [2] (setting [7]) and 28 ± 10 mm in assay [2] (setting [8]).
For `O=[N+]([O-])[O-].[Ag+]` [silver(I), silver nitrate], the Clotting time in assay [1] (setting [6]) came out at 220 ± 50 s; in assay [1] (non-heparinized blood, without silver 217 seconds) it was 81 s; in assay [1] (normal blood, 2.9 mM AgNO3, n = 8), 109 ± 20 s; in assay [1] (recalcified citrated whole blood, heparin not given, silver nitrate 0.05% (in some cases 0.01%), heparinase 1 U/mL, n = 5), 94 ± 35 s; in assay [1] (second study, without silver 588 seconds) it was 168 s; in assay [1] (setting [9]) it was 91 ± 14 s. Further, the Clotting time in assay [3] (heparinized blood, without silver 1930 seconds) was 872 s; in assay [4], 83 ± 29 s; in assay [5], 128 ± 32 s. In addition, the results for the “clot strength, SONOCLOT tracing” value in assay [1] (non-heparinized blood) and in assay [1] (second study) were “the clot is stronger” and “stronger clot”, respectively. In addition, in assay [3] (0.25 U/ml heparin, 0.05% or 0.3% silver (I) ion, absence of collagen), the “clotting time (FIG. 4, C and D)” value is on record as “prolonged clotting time”. Moreover, in assay [3] (heparinized whole blood), the “physical characteristics of the clot (clot strength), SONOCLOT tracing” value is “stronger clot”. Further, the Perfusion in assay [2] (setting [7]) is reported as 18 ± 4 mm; in assay [2] (Study II, filter paper impregnated with 1% AgNO3, n = 5), 42 ± 18 mm; in assay [2] (setting [8]), 17 ± 2 mm.
On to thrombin, for which the Clotting time in assay [1] (setting [9]) was found to be 156 ± 42 s.
Consider heparin [reference compound], for which the Clotting time in assay [3] (citrated blood with heparin 2 U/mL, recalcified, silver nitrate 0.05% (in some cases 0.01%), heparinase 1 U/mL, n = 5) was 1930 ± 83 s.
